In patent US9364476B2, “Methods of treating a Bruton's Tyrosine Kinase disease or disorder” (Celgene Avilomics Research, Inc., priority 2011, dated 2016):
Values joined by “and” are separate entries in the source; they are usually repeats but may differ in a detail not shown here. Equal entries are not always repeated. Where two headings read alike, the source gives them in different places.

Key:
B-NHL patients = assay: Dose escalation study: lymph node size in B-NHL patients; assay type: in vivo, human; conditions: dose escalation cohorts
Source text: The doses indicated refer to the patient's starting dose. The numbers at the top of each bar indicate the number of cycles completed for each subject as of the last available lymph node measurement.

[1] = Environmental stability (heat, acid, base); assay type: physicochemical
[2] = CLL expansion cohort C: DLT; assay type: in vivo, human; conditions: 24 subjects, 750 mg po QD
Description: (§1) 24 subjects were enrolled into the CLL expansion cohort C and were assessed for safety, tolerability, DLT, PK, PD and disease response. Each subject was evaluated prior to enrollment to ensure that minimum hematological criteria were satisfied: […]

[3] = for maximum tolerated dose (MTD): dose escalation cohorts, besylate
Source text: (§2) Intrapatient dose escalation was allowed.
Enrollment for Cohorts 1-5 was not restricted or contingent on the basis of specific B-NHL/CLL/WM diagnosis. […] For example, the physician-investigator may elect to rest a patient due to occurrence or recurrence of adverse events. […] In this context, treatment duration refers to the time a patient is enrolled in the study, inclusive of all rest periods, until treatment is discontinued.
Six (6) subjects diagnosed with CLL and six (6) patients diagnosed with B-NHL were enrolled in each of Cohorts 6A and 6B. Cohorts 6A and 6B were enrolled concurrently, and if meeting the requirements for continued escalation, Cohorts 7A and 7B will be enrolled and evaluated.
Hematologic DLTs included Grade 4 anemia or thrombocytopenia, Grade 4 neutropenia greater than 5 days despite granulocyte colony-stimulating factor (G-CSF) and Grade 3 or higher febrile neutropenia.
Dose escalation will continue until a DLT is observed. […] One key objective for the dose escalation portion of the study was to identify the maximum tolerated dose (MTD) and Optimal Biological Effect dose (OBE). The OBE was defined as: […]

[4] = Plasma API levels by LC-MS-MS (PK); assay type: in vivo, human
Description: Plasma API levels were assessed by LC-MS-MS.

Solubility of the API = assay type: physicochemical
[5] = tested on: Relapsed and/or refractory CLL/SLL; assay: CLL expansion cohort C: disease response; assay type: in vivo, human
Description: After completion of observation for DLTs in Example 1, the accumulated safety, PK, and PD data from Example 1 were evaluated to select a preliminary recommended Phase 2 dose for administration to additional subjects enrolled into an independent and non-randomized diagnosis-specific expansion cohorts in the Diagnosis Specific Expansion Cohorts study. • Cohort A: Relapsed and/or refractory diffuse large B-cell lymphoma (DLBCL); • Cohort B: Relapsed and/or refractory indolent and mantle B-cell lymphomas, Waldenstrom's macroglobulinemia, and other B lymphoproliferative disorders of uncertain malignant potential (at least 10 of the 24 enrollment slots will be reserved for subjects with mantle cell lymphoma); and • Cohort C: Relapsed and/or refractory CLL/SLL.
as §1

[6] = tested on: relapsed or refractory B-NHL, CLL/SLL, or WM; assay: Dose escalation study: disease progression and treatment duration; assay type: in vivo, human
Description: as §2
Subjects with CLL experiencing nodal response with lymphocytosis (which may be related to drug-mediated lymphocyte redistribution) were also eligible for additional treatment. Subjects with WM with increasing serum Immunoglobulin M (“IgM”) levels at the end of the first 28-day cycle were also evaluated for lymphadenopathy/organomegaly and marrow infiltration. Investigators were permitted to use judgment in determining whether to continue these subjects into the second 28-day cycle if there was a discordant response between increased IgM and stable or decreased lymphadenopathy/organomegaly and marrow infiltration.

CLL patients = assay: Dose escalation study: lymph node size and absolute lymphocyte count in CLL patients; assay type: in vivo, human
Source text: FIG. 6 depicts the change in lymph node size in CLL patients with available lymph node assessment, twelve (12) of whom are from cohorts 1-5. These patients have experienced some degree of lymph node reduction: 2/12 patients have experienced nodal response (>50% reduction); 6/12 patients have experienced between 25 and 50% reduction over the treatment and follow-up periods indicated in the figure. The doses indicated refer to the patient's starting dose. The numbers at the top of each bar indicate the number of cycles completed for each subject as of the last available lymph node measurement.
FIG. 7 depicts the change in absolute lymphocyte count (ALC) in CLL patients. As of Sep. […] All CLL subjects with follow-up through cycle 1 at all dose levels are shown. Subjects treated with 750 mg or higher are indicated under the dotted line.

[7] = 5/21 subjects, regardless of dose
[8] = cohort 5, 750 mg QD, initial, through May 22, 2012
[9] = cohorts 1-5 through May 22, 2012
[10] = eleven patients from Expansion Cohort C, 750 mg QD
[11] = twelve CLL patients from cohorts 1-5 with lymph node assessment

## C=CC(=O)Nc1cccc(Nc2nc(Nc3ccc(OCCOC)cc3)ncc2F)c1.O=S(=O)(O)c1ccccc1 [N-(3-(5-fluoro-2-(4-(2-methoxyethoxy)phenylamino)pyrimidin-4-ylamino)phenyl)acrylamide besylate]
B-NHL patients
  B-NHL patients with decreased lymph node size: Six
[1]
  environmental instabilities (i.e. heat, acid, base) that require special handling: no environmental instabilities
[2]
  patients showing no DLT: Twenty-four
[3]; [7]
  treatment emergent AE: grade 1 or 2 headache: 23.8%
  treatment emergent AE: thrombocytopenia: 23.8%
[3]; 15/21 subjects, regardless of dose
  treatment emergent AE: grade 1 or 2 transient diarrhea: 71.4%
[3]; besides the follicular lymphoma patient in cohort 3
  other DLTs: no other DLTs have occurred
[3]; cohort 1
  serious adverse event not related to the study: disseminated Herpes zoster: 1 patient
  serious adverse event not related to the study: pneumonia: 1 patient
[3]; cohort 1, 125 mg QD
  incidence of abdominal distension: 1 patient
  incidence of contusion (bruising): 2 patients
  incidence of diarrhea: 3 patients
  incidence of dyspepsia: 1 patient
  incidence of dyspnea: 1 patient
  incidence of fatigue: 2 patients
  incidence of headache: 2 patients
  incidence of jaw pain: 1 patient
  incidence of lymph node pain: 2 patients
  incidence of muscle spasm: 1 patient
  incidence of nausea: 1 patient
  incidence of pneumonia: 1 patient
  incidence of rash: 1 patient
  incidence of sinusitis: 1 patient
  incidence of thrombocytopenia: 1 patient
  incidence of upper respiratory infection: 2 patients
  incidence of urticaria: 1 patient
  incidence of weight loss: 1 patient
[3]; cohort 2
  serious adverse event not related to the study: atrial fibrillation: 1 patient
[3]; cohort 2, 250 mg QD
  incidence of abdominal distension: 1 patient
  incidence of cough: 1 patient
  incidence of decreased diarrhea: 2 patients
  incidence of dysgeusia: 1 patient
  incidence of dyspnea: 1 patient
  incidence of fatigue: 1 patient
  incidence of nausea: 1 patient
  incidence of neutropenia: 1 patient
  incidence of pneumonia: 1 patient
  incidence of weight loss: 1 patient
[3]; cohort 3
  serious adverse event not related to the study: hematuria/urinary retention: 1 patient
  serious adverse event not related to the study: pneumonia/thrombocytopenia/ANC decreased: 1 patient
[3]; cohort 3 (400 mg QD), follicular lymphoma subject, first 28-day cycle
  dose limiting toxicity: thrombocytopenia (low platelet count; Grade 4)
[3]; cohort 3, 400 mg QD
  incidence of anemia: 1 patient
  incidence of cough: 2 patients
  incidence of diarrhea: 4 patients
  incidence of fatigue: 1 patient
  incidence of headache: 1 patient
  incidence of influenza-like illness: 1 patient
  incidence of insomnia: 1 patient
  incidence of jaw pain: 1 patient
  incidence of muscle spasm: 1 patient
  incidence of neutropenia: 2 patients
  incidence of pneumonia: 1 patient
  incidence of rash: 1 patient
  incidence of thrombocytopenia: 3 patients
  incidence of upper respiratory infection: 2 patients
  incidence of urinary retention: 1 patient
  incidence of urticaria: 1 patient
[3]; cohort 4
  serious adverse event not related to the study: tonsillar hypertrophy: 1 patient
[3]; cohort 4 (625 mg QD), CLL patient, after three cycles
  neutropenia (adverse event) leading to discontinuation, after: 85 days
[3]; cohort 4, 625 mg QD
  incidence of abdominal pain: 2 patients
  incidence of anemia: 1 patient
  incidence of dehydration: 2 patients
  incidence of diarrhea: 5 patients
  incidence of dysgeusia: 2 patients
  incidence of dyspepsia: 2 patients
  incidence of eye pain: 2 patients
  incidence of headache: 2 patients
  incidence of influenza-like illness: 1 patient
  incidence of insomnia: 1 patient
  incidence of nausea: 2 patients
  incidence of neutropenia: 1 patient
  incidence of sinusitis: 1 patient
  incidence of thrombocytopenia: 1 patient
  incidence of urinary retention: 1 patient
[3]; [8]
  incidence of abdominal pain: 1 patient
  incidence of diarrhea: 1 patient
[3]; [9]
  Grade 3-4 neutropenia: 3 patients
  Grade 3-4 pneumonia: 2 patients
  Grade 3-4 thrombocytopenia: 4 patients
[3]
  maximum tolerated dose (MTD): not yet been reached
[3]; listed as API
  maximum tolerated dose (MTD): not been reached
[3]; except for decreased ANC (neutropenia), pneumonia and thrombocytopenia
  severity of adverse events reported: Grade 1 and 2
[3]; subjects/21, probably related
  Grade 3/4 adverse event: neutropenia: 3/21
  Grade 3/4 adverse event: pneumonia: 2/21
  Grade 3/4 adverse event: thrombocytopenia: 4/21
[4]; Day 1 to 15, once daily oral dosing
  PK exposure (AUClast): linear with no accumulation
[4]; once daily oral dosing
  PK: predictable with no accumulation
Solubility of the API; ethanol, organic solvent or mixture, read-out: solubility in ethanol
  solubility: ~10 mg/mL
Solubility of the API; water, read-out: solubility in water
  solubility: ~0.16 mg/mL
[5]; cohort C, 750 mg po QD, one patient
  progressive disease after: 73 days
[5]; cohort C, 24 subjects, 750 mg po QD
  patients showing no disease progression: twenty-three
[5]; [10]
  CLL patients with between 25 and 50% reduction of lymph node size: 6/11
  CLL patients with nodal response (>50% reduction of lymph node size): 1/11
[5]; of eighteen (18) patients in Expansion Cohort C, 750 mg QD, first 28-day cycle
  CLL patients with early increases (≧25%) in absolute lymphocyte counts (ALC): 17 patients
[6]; cohort 1 (125 mg), three CLL subjects
  DLT or disease progression: None of the subjects showed DLT or disease progression
[6]; cohort 1 (starting 125 mg QD), three CLL patients, one value per patient, listed as API, besylate
  progressive disease after: 187 days and 319 days and 332 days
[6]; cohort 2 (250 mg QD), DLBCL subject
  progressive disease after: 28 days
[6]; cohort 2 (250 mg), three subjects
  subjects showing no DLT or disease progression: Two of the three
[6]; cohort 3 (400 mg QD), two CLL patients, one value per patient, listed as API, besylate
  progressive disease after: 168 days and 231 days
[6]; cohort 3 (400 mg), six subjects, one MZL, two CLL
  patients showing no DLT or disease progression: Three
[6]; cohort 4 (625 mg QD), DLBCL patient
  progressive disease after: 33 days
[6]; cohort 4 (625 mg QD), mantle cell lymphoma patient
  progressive disease after: 105 days
[6]; cohort 4 (625 mg QD), two follicular lymphoma patients, one value per patient, listed as API, besylate
  progressive disease after: 56 days and 212 days
[6]; cohort 4 (625 mg), six subjects, follicular lymphoma
  patients showing no DLT or disease progression: One
[6]; cohort 5 (750 mg QD), MLBCL patient
  progressive disease after: 64 days
[6]; cohort 5 (750 mg), six subjects
  patients showing no DLT or disease progression: Five
[6]; cohorts 6A and 6B (1000 mg QD / 375 mg BID), twelve subjects, as of Sep. 11, 2012
  patients showing no DLT or disease progression: eleven
CLL patients; of fifteen (15) CLL patients in cohorts 1-6A/B, first 28-day cycle, as of Sep. 11, 2012
  CLL patients with early increases (≧25%) in absolute lymphocyte counts (ALC): 11 patients
CLL patients; [11]
  CLL patients with between 25 and 50% reduction of lymph node size: 6/12
  CLL patients with nodal response (>50% reduction of lymph node size): 2/12
